Patent US20220401514A1, “ANTIMICROBIAL, BACTERIOPHAGE-DERIVED POLYPEPTIDES AND THEIR USE AGAINST GRAM-NEGATIVE AND ACID-FAST BACTERIA” (CONTRAFECT CORPORATION, priority 2019, published 2022)

What was measured:
Salmonella typhimurium = test: MIC against Salmonella typhimurium; format: cell-based; conditions: Salmonella typhimurium
[1] = system: mature biofilms formed by P. aeruginosa strain ATCC 17647; test: Minimal Biofilm Eradicating Concentration (MBEC), Calgary Biofilm Device, crystal violet; format: cell-based, Pseudomonas aeruginosa
Description: Biofilms are then washed and treated with e.g., a 2-fold dilution series of the lysin in TSBg at e.g., 37° C. for 24 hours. After treatment, wells are washed, air-dried at e.g., 37° C. and stained with e.g., 0.05% crystal violet for 10 minutes.
Determination of Minimal Biofilm Eradicating Concentrations (MBEC). […] Biofilms were washed and treated with a 2-fold dilution series of each peptide in TSBg at 37° C. for 16 hours. […] The OD600 of extracted crystal violet was determined.

[2] = system: eight different strains of five species of Gram-negative bacteria; test: MBEC in eight strains of five species of Gram-negative bacteria; format: cell-based; conditions: for MBEC: 24 h biofilm in LB, 16 h treatment
Description: Determination of Minimal Biofilm Eradicating Concentrations (MBEC). […] The OD600 of extracted crystal violet was determined. The MBEC value of each sample was determined as the minimum drug concentration required to remove >95% of biofilm biomass as assessed by crystal violet quantitation (in comparison to untreated controls).
MBEC values were likewise determined for Chp2, Chp2-M1, and Chp10-M1 in eight different strains of five species of Gram-negative bacteria. […] The films were then washed and stained with crystal violet to visualize the MBEC.

[3] = system: Klebsiella pneumoniae strain 1139; test: Checkerboard assay (FICI) with antibiotics, K. pneumoniae; format: cell-based
Description: Checkerboard assays. […] Checkerboards were constructed by first preparing columns of a 96-well polypropylene microtiter plate, in which each well had the same amount of antibiotic diluted 2-fold along the horizontal axis. […] Summation fractional inhibitory concentration index (FICIs) were calculated for each drug and the minimum FICI was used to determine synergy. FICIs were calculated as follows: FICI=FIC A+FIC B, where FIC A is the MIC of each antibiotic in the combination/MIC of the each antibiotic alone, and FIC B is the MIC of each Chp peptide in the combination/MIC of each Chp peptide alone. The combination is considered synergistic when the FICI is ≤0.5, strongly additive when the FICI is >0.5 to <1, additive with the FICI is 1-<2, and antagonistic when the FICI is ≥2.

[4] = system: P. aeruginosa strain CFS-1292; test: Time-kill assay in CAA with 2.5% human serum; format: cell-based, Pseudomonas aeruginosa; conditions: for Loss of bacterial viability: CAA with […] human serum, vs untreated controls
Description: Time-Kill Assay of Chp Peptide Activity. […] Exponential phase bacteria were then diluted 1:100 into CAA/HuS and peptide was added at a final concentration of either 1 or 10 μg/mL. Control cultures were included with no peptide added (i.e., buffer control).

[5] = system: P. aeruginosa strain CFS-1292; format: cell-based, Pseudomonas aeruginosa
[6] = system: Pseudomonas aeruginosa isolates; test: MIC against CDC Pseudomonas aeruginosa panel (n = 55); format: cell-based
Description: MIC values were determined using the methodology described above, i.e., the standard broth microdilution reference method defined by CLSI.

[7] = system: Gram-negative bacteria (including P. aeruginosa, E. cloacae, K. pneumoniae, E. coli, and A. baumannii); test: Propidium iodide uptake; format: cell-based
Source text: The damage caused by the Chp peptides disclosed herein to the outer and inner membranes of Gram-negative bacteria can also be assessed with impermeable dyes such as propidium iodide. […] AGENTS CHEMO. 2012; 56:5698-5708.

Sequence: MRLKMARRRYRLPRRRSRRLFSRTALRMHPRNRLRRIMRGGIRF [Chp2]
- MIC (Salmonella typhimurium): 2 µg/mL
- MBEC ([1]; MBEC assay format, summary statement, strain not stated there): 0.25 µg/mL
- MBEC ([1]; P. aeruginosa ATCC 17647 mature biofilm, tryptic soy broth with 2% glucose): 0.25 µg/mL
- MBEC ([2]; A. baumanni (ATCC BAA-747)): 0.5 µg/mL
- MBEC ([2]; E. cloacae (CCUG 63317)): 2 µg/mL
- MBEC ([2]; E. coli (ATCC 25922)): 2 µg/mL
- MBEC ([2]; E. coli (ATCC 35329)): 4 µg/mL
- MBEC ([2]; E. coli (EC2)): 2 µg/mL
- MBEC ([2]; K. pneumoniae (ATCC 700603)): 4 µg/mL
- MBEC ([2]; K. pneumoniae (KP1)): 2 µg/mL
- MBEC ([2]; P. aeruginosa (ATCC 27853)): 0.25 µg/mL
- antibiofilm activity (MBEC) ([2]; biofilms formed 24 hours in LB, treated 16 hours): potent antibiofilm activity
- FIC Index ([3]; Chp peptide combined with Azithromycin): 0.25
- FIC Index ([3]; Chp peptide combined with Aztreonam): 0.563
- FIC Index ([3]; Chp peptide combined with Colistin): 0.625
- FIC Index ([3]; Chp peptide combined with Imipenem): 0.5
- FIC Index ([3]; Chp peptide combined with Levofloxacin): 0.5
- FIC Index ([3]; Chp peptide combined with Meropenem): 0.313
- FIC Index ([3]; Chp peptide combined with Tobramycin): 0.5
- Chp peptide FIC ([3]; combined with Azithromycin): 0.125
- Chp peptide MIC in checkerboard ([3]; combined with Azithromycin): 0.0625 µg/mL
- Chp peptide FIC ([3]; combined with Aztreonam): 0.0625
- Chp peptide MIC in checkerboard ([3]; combined with Aztreonam): 0.3125 µg/mL
- Chp peptide FIC ([3]; combined with Colistin): 0.5
- Chp peptide MIC in checkerboard ([3]; combined with Colistin): 0.25 µg/mL
- Chp peptide FIC ([3]; combined with Imipenem): 0.25
- Chp peptide MIC in checkerboard ([3]; combined with Imipenem): 0.125 µg/mL
- Chp peptide FIC ([3]; combined with Levofloxacin): 0.25
- Chp peptide MIC in checkerboard ([3]; combined with Levofloxacin): 0.0625 µg/mL
- Chp peptide FIC ([3]; combined with Meropenem): 0.0625
- Chp peptide MIC in checkerboard ([3]; combined with Meropenem): 0.0625 µg/mL
- Chp peptide FIC ([3]; combined with Tobramycin): 0.25
- Chp peptide MIC in checkerboard ([3]; combined with Tobramycin): 0.125 µg/mL
- Loss of bacterial viability ([4]; 1 μg/mL, 1 hour): >3.5 log10 CFU/mL
- Loss of bacterial viability ([4]; 1 μg/mL, 3 hours): >4 log10 CFU/mL
- Loss of bacterial viability ([4]; 1 μg/mL, 24 hours): >4.8 log10 CFU/mL
- Loss of bacterial viability ([4]; 10 μg/mL, 1 hour): >3.5 log10 CFU/mL
- Loss of bacterial viability ([4]; 10 μg/mL, 3 hours): >4 log10 CFU/mL
- Loss of bacterial viability ([4]; 10 μg/mL, 24 hours): >4.8 log10 CFU/mL
- bacterial viability after treatment (time-kill) ([4]; 1, 3 and 24 hours, 1 μg/mL and 10 μg/mL, CAA + […] human serum): multi-log fold decreases
- frequency (spontaneous resistance) ([5]; CAA media with agent at 4×MIC, resistant colonies after 48 hours / total CFUs): <1.25E−09
- MIC ([5]; P. aeruginosa CFS-1292, MIC underlying the 4×MIC selection): 0.25 µg/mL
- MIC ([6]; CDC Antibiotic-Resistant Bank No. 0229): 0.5 µg/mL
- MIC ([6]; CDC Antibiotic-Resistant Bank No. 0230): 0.5 µg/mL
- MIC ([6]; CDC Antibiotic-Resistant Bank No. 0231): 0.5 µg/mL
- MIC ([6]; CDC Antibiotic-Resistant Bank No. 0232): 0.5 µg/mL
- MIC ([6]; CDC Antibiotic-Resistant Bank No. 0233): 0.5 µg/mL
- MIC ([6]; CDC Antibiotic-Resistant Bank No. 0234): 0.5 µg/mL
- MIC ([6]; CDC Antibiotic-Resistant Bank No. 0235): 0.5 µg/mL
- MIC ([6]; CDC Antibiotic-Resistant Bank No. 0236): 0.5 µg/mL
- MIC ([6]; CDC Antibiotic-Resistant Bank No. 0237): 0.5 µg/mL
- MIC ([6]; CDC Antibiotic-Resistant Bank No. 0238): 0.5 µg/mL
- MIC ([6]; CDC Antibiotic-Resistant Bank No. 0239): 1 µg/mL
- MIC ([6]; CDC Antibiotic-Resistant Bank No. 0240): 1 µg/mL
- MIC ([6]; CDC Antibiotic-Resistant Bank No. 0241): 1 µg/mL
- MIC ([6]; CDC Antibiotic-Resistant Bank No. 0242): 0.5 µg/mL
- MIC ([6]; CDC Antibiotic-Resistant Bank No. 0243): 0.5 µg/mL
- MIC ([6]; CDC Antibiotic-Resistant Bank No. 0244): 1 µg/mL
- MIC ([6]; CDC Antibiotic-Resistant Bank No. 0245): 0.5 µg/mL
- MIC ([6]; CDC Antibiotic-Resistant Bank No. 0246): 1 µg/mL
- MIC ([6]; CDC Antibiotic-Resistant Bank No. 0247): 1 µg/mL
- MIC ([6]; CDC Antibiotic-Resistant Bank No. 0248): 1 µg/mL
- MIC ([6]; CDC Antibiotic-Resistant Bank No. 0249): 1 µg/mL
- MIC ([6]; CDC Antibiotic-Resistant Bank No. 0250): 1 µg/mL
- MIC ([6]; CDC Antibiotic-Resistant Bank No. 0251): 1 µg/mL
- MIC ([6]; CDC Antibiotic-Resistant Bank No. 0252): 1 µg/mL
- MIC ([6]; CDC Antibiotic-Resistant Bank No. 0253): 1 µg/mL
- MIC ([6]; CDC Antibiotic-Resistant Bank No. 0254): 1 µg/mL
- MIC ([6]; CDC Antibiotic-Resistant Bank No. 0255): 1 µg/mL
- MIC ([6]; CDC Antibiotic-Resistant Bank No. 0256): 1 µg/mL
- MIC ([6]; CDC Antibiotic-Resistant Bank No. 0257): 1 µg/mL
- MIC ([6]; CDC Antibiotic-Resistant Bank No. 0258): 2 µg/mL
- MIC ([6]; CDC Antibiotic-Resistant Bank No. 0259): 1 µg/mL
- MIC ([6]; CDC Antibiotic-Resistant Bank No. 0260): 0.5 µg/mL
- MIC ([6]; CDC Antibiotic-Resistant Bank No. 0261): 1 µg/mL
- MIC ([6]; CDC Antibiotic-Resistant Bank No. 0262): 1 µg/mL
- MIC ([6]; CDC Antibiotic-Resistant Bank No. 0263): 1 µg/mL
- MIC ([6]; CDC Antibiotic-Resistant Bank No. 0264): 1 µg/mL
- MIC ([6]; CDC Antibiotic-Resistant Bank No. 0265): 1 µg/mL
- MIC ([6]; CDC Antibiotic-Resistant Bank No. 0266): 1 µg/mL
- MIC ([6]; CDC Antibiotic-Resistant Bank No. 0267): 1 µg/mL
- MIC ([6]; CDC Antibiotic-Resistant Bank No. 0268): 1 µg/mL
- MIC ([6]; CDC Antibiotic-Resistant Bank No. 0269): 1 µg/mL
- MIC ([6]; CDC Antibiotic-Resistant Bank No. 0270): 0.5 µg/mL
- MIC ([6]; CDC Antibiotic-Resistant Bank No. 0271): 1 µg/mL
- MIC ([6]; CDC Antibiotic-Resistant Bank No. 0272): 1 µg/mL
- MIC ([6]; CDC Antibiotic-Resistant Bank No. 0763): 1 µg/mL
- MIC ([6]; CDC Antibiotic-Resistant Bank No. 0764): 1 µg/mL
- MIC ([6]; CDC Antibiotic-Resistant Bank No. 0765): 1 µg/mL
- MIC ([6]; CDC Antibiotic-Resistant Bank No. 0766): 1 µg/mL
- MIC ([6]; CDC Antibiotic-Resistant Bank No. 0767): 1 µg/mL
- MIC ([6]; CDC Antibiotic-Resistant Bank No. 0768): 0.5 µg/mL
- MIC ([6]; CDC Antibiotic-Resistant Bank No. 0769): 1 µg/mL
- MIC ([6]; CDC Antibiotic-Resistant Bank No. 0770): 1 µg/mL
- MIC ([6]; CDC Antibiotic-Resistant Bank No. 0771): 1 µg/mL
- MIC ([6]; CDC Antibiotic-Resistant Bank No. 0772): 1 µg/mL
- MIC ([6]; CDC Antibiotic-Resistant Bank No. 0773): 1 µg/mL
- MIC50 ([6]; Pseudomonas aeruginosa panel): 1 µg/mL
- MIC90 ([6]; Pseudomonas aeruginosa panel): 1 µg/mL
- cell envelop permeability (propidium iodide uptake) [7]: dose-dependent increase in cell envelop permeability was equivalent to that of colistin, LL37, and melittin
